Target: T1, human progesterone receptor A (Homo sapiens, UniProt P06401)
T1 construct: expressed in transfected cells; host or cells: SK-N-MC human neuroblastoma cells, stably transfected
T1 sequence (P06401 1-769 isoform P06401-2): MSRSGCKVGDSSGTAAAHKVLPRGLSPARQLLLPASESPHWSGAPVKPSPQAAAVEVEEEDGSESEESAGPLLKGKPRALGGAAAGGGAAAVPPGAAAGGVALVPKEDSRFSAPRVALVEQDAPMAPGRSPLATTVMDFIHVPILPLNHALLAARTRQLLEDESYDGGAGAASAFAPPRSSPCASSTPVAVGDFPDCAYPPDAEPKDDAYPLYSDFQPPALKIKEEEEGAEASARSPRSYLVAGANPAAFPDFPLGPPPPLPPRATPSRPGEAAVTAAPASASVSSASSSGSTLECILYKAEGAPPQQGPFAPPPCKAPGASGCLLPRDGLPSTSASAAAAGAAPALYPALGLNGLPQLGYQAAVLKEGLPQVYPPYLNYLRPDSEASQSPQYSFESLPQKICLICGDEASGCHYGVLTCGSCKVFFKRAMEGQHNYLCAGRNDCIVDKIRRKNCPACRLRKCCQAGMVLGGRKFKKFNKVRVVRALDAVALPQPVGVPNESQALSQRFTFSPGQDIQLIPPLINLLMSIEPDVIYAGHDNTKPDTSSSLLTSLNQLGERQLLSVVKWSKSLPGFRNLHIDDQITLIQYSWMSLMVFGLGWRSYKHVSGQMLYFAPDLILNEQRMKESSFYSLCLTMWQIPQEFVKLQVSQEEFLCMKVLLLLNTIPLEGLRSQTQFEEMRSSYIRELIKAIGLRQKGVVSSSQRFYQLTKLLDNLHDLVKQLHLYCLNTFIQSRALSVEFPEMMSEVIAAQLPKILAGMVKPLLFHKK
Test: Progesterone-receptor-antagonistic action in stably transfected SK-N-MC cells, MTV-LUC reporter (PR-A)
Type: cell-based
Conditions: antagonistic potency vs 0.1 nmol/l promegestone, 24 hours, luciferase
Experimental: Progesterone-Receptor-Antagonistic Action in Stable Transfectants of Human Neuroblastoma Cells (SK-N-MC Cells) with the Human Progesterone A or Progesterone B Receptor and an MTV-LUC Reporter Construct
SK-N-MC cells (human neuroblastoma cells) that have been stably transfected with plasmids that express the human progesterone receptor B (pRChPR-B-neo) or the human progesterone receptor A (pRChPR-A-neo) and a reporter construct (pMMTV-LUC), were incubated for 24 hours either in the absence (negative control) or in the presence of increasing amounts of the particular test compound (0.01 nmol/l, 0.1 nmol/l, 1 nmol/l, 10 nmol/l, 100 nmol/l and 1 μmol/l), to determine the agonistic efficacy. As positive control of reporter gene induction, the cells were treated with the synthetic gestagen promegestone (0.01 nmol/l, 0.1 nmol/l, 1 nmol/l, 10 nmol/l, 100 nmol/l and 1 μmol/l). For determination of the antagonistic activity, the cells were treated with 0.1 nmol/l promegestone and additionally with increasing amounts of the particular test compound (0.01 nmol/l, 0.1 nmol/l, 1 nmol/l, 10 nmol/l, 100 nmol/l and 1 μmol/l). The activity of the reporter gene LUC (LUC=luciferase) was determined in the cell lysates and was measured as RLU (relative light units). All measured values are given as % efficacy and as EC50 or IC50 concentrations.

SMILES	IC50
CN(Cc1ccncc1)C(=O)c1ccc([C@H]2C[C@@]3(C)[C@@H](CC[C@@]3(O)C(F)(F)C(F)(F)F)[C@@H]3CCC4=CC(=O)CCC4=C32)cc1 [Example 33, 4-[(11β,17β)-17-hydroxy-3-oxo-17-(pentafluoroethyl)estra-4,9-dien-11-yl]-N-methyl-N-(pyridin-4-ylmethyl)benzamide]	6.98 nM
C[C@]12C[C@H](c3ccc(C(=O)NCc4ccccc4)cc3)C3=C4CCC(=O)C=C4CC[C@H]3[C@@H]1CC[C@@]2(O)C(F)(F)C(F)(F)F [Example 34, N-benzyl-4-[(11β,17β)-17-hydroxy-3-oxo-17-(pentafluoroethyl)estra-4,9-dien-11-yl]benzamide]	14.4 nM
COc1ccc(CNC(=O)c2ccc([C@H]3C[C@@]4(C)[C@@H](CC[C@@]4(O)C(F)(F)C(F)(F)F)[C@@H]4CCC5=CC(=O)CCC5=C43)cc2)cc1 [Example 35, 4-[(11β,17β)-17-hydroxy-3-oxo-17-(pentafluoroethyl)estra-4,9-dien-11-yl]-N-(4-methoxybenzyl)benzamide]	34 nM
C[C@]12C[C@H](c3ccc(C(=O)NCc4ccc(Cl)cc4)cc3)C3=C4CCC(=O)C=C4CC[C@H]3[C@@H]1CC[C@@]2(O)C(F)(F)C(F)(F)F [Example 36, N-(4-chlorobenzyl)-4-[(11β,17β)-17-hydroxy-3-oxo-17-(pentafluoroethyl)estra-4,9-dien-11-yl]benzamide]	20 nM
CC(=O)NCCNC(=O)c1ccc([C@H]2C[C@@]3(C)[C@@H](CC[C@@]3(O)C(F)(F)C(F)(F)F)[C@@H]3CCC4=CC(=O)CCC4=C32)cc1 [Example 37, N-(2-acetamidoethyl)-4-[(11β,17β)-17-hydroxy-3-oxo-17-(pentafluoroethyl)estra-4,9-dien-11-yl]benzamide]	385 nM
COC(=O)c1ccc(NC(=O)c2ccc([C@H]3C[C@@]4(C)[C@@H](CC[C@@]4(O)C(F)(F)C(F)(F)F)[C@@H]4CCC5=CC(=O)CCC5=C43)cc2)cc1 [Example 38, methyl-4-({4-[(11β,17β)-17-hydroxy-3-oxo-17-(pentafluoroethyl)estra-4,9-dien-11-yl]benzoyl}amino)benzoate]	1.88 nM
C[C@]12C[C@H](c3ccc(C(=O)N4CCc5ccccc5C4)cc3)C3=C4CCC(=O)C=C4CC[C@H]3[C@@H]1CC[C@@]2(O)C(F)(F)C(F)(F)F [Example 39, (11β,17β)-11-[4-(3,4-dihydroisoquinolin-2(1H)-ylcarbonyl)phenyl]-17-hydroxy-17-(pentafluoroethyl)estra-4,9-dien-3-one]	9.5 nM
C[C@]12C[C@H](c3ccc(C(=O)N4CCN(Cc5ccccc5)CC4)cc3)C3=C4CCC(=O)C=C4CC[C@H]3[C@@H]1CC[C@@]2(O)C(F)(F)C(F)(F)F [Example 40, (11β,17β)-11-{4-[(4-benzylpiperazin-1-yl)carbonyl]phenyl}-17-hydroxy-17-(pentafluoroethyl)estra-4,9-dien-3-one]	117 nM
C[C@]12C[C@H](c3ccc(C(=O)Nc4ccc(C(N)=O)cc4)cc3)C3=C4CCC(=O)C=C4CC[C@H]3[C@@H]1CC[C@@]2(O)C(F)(F)C(F)(F)F [Example 41, N-(4-carbamoylphenyl)-4-[(11β,17β)-17-hydroxy-3-oxo-17-(pentafluoroethyl)estra-4,9-dien-11-yl]benzamide]	4.7 nM
C[C@]12C[C@H](c3ccc(C(=O)NC4CC4)cc3)C3=C4CCC(=O)C=C4CC[C@H]3[C@@H]1CC[C@@]2(O)C(F)(F)C(F)(F)F [Example 42, N-cyclopropyl-4-[(11β,17β)-17-hydroxy-3-oxo-17-(pentafluoroethyl)estra-4,9-dien-11-yl]benzamide]	7.3 nM
CN(CCc1ccccc1)C(=O)c1ccc([C@H]2C[C@@]3(C)[C@@H](CC[C@@]3(O)C(F)(F)C(F)(F)F)[C@@H]3CCC4=CC(=O)CCC4=C32)cc1 [Example 43, 4-[(11β,17β)-17-hydroxy-3-oxo-17-(pentafluoroethyl)estra-4,9-dien-11-yl]-N-methyl-N-(2-phenylethyl)benzamide]	10.8 nM
C[C@]12C[C@H](c3ccc(C(=O)N4CCN(CCc5ccccc5)CC4)cc3)C3=C4CCC(=O)C=C4CC[C@H]3[C@@H]1CC[C@@]2(O)C(F)(F)C(F)(F)F [Example 44, (11β,17β)-17-hydroxy-17-(pentafluoroethyl)-11-(4-{[4-(2-phenylethyl)piperazin-1-yl]carbonyl}phenyl)estra-4,9-dien-3-one]	25 nM
C[C@]12C[C@H](c3ccc(C(=O)N4CCN(c5ccncc5)CC4)cc3)C3=C4CCC(=O)C=C4CC[C@H]3[C@@H]1CC[C@@]2(O)C(F)(F)C(F)(F)F [Example 45, (11β,17β)-17-hydroxy-17-(pentafluoroethyl)-11-(4-{[4-(pyridin-4-yl)piperazin-1-yl]carbonyl}phenyl)estra-4,9-dien-3-one]	26 nM
C[C@]12C[C@H](c3ccc(C(=O)N4CCN(c5cnccn5)CC4)cc3)C3=C4CCC(=O)C=C4CC[C@H]3[C@@H]1CC[C@@]2(O)C(F)(F)C(F)(F)F [Example 46, (11β,17β)-17-hydroxy-17-(pentafluoroethyl)-11-(4-{[4-(pyrazin-2-yl)piperazin-1-yl]carbonyl}phenyl)estra-4,9-dien-3-one]	4.3 nM
CN(C)CCN1CCN(C(=O)c2ccc([C@H]3C[C@@]4(C)[C@@H](CC[C@@]4(O)C(F)(F)C(F)(F)F)[C@@H]4CCC5=CC(=O)CCC5=C43)cc2)CC1 [Example 47, (11β,17β)-11-[4-({4-[2-(dimethylamino)ethyl]piperazin-1-yl}carbonyl)phenyl]-17-hydroxy-17-(pentafluoroethyl)estra-4,9-dien-3-one]	346 nM
C[C@]12C[C@H](c3ccc(C(=O)N4CCN(CCN5CCCC5)CC4)cc3)C3=C4CCC(=O)C=C4CC[C@H]3[C@@H]1CC[C@@]2(O)C(F)(F)C(F)(F)F [Example 48, (11β,17β)-17-hydroxy-17-(pentafluoroethyl)-11-[4-({4-[2-(pyrrolidin-1-yl)ethyl]piperazin-1-yl}carbonyl)phenyl]estra-4,9-dien-3-one]	667 nM
C[C@]12C[C@H](c3ccc(C(=O)N4CCN(Cc5ccncc5)CC4)cc3)C3=C4CCC(=O)C=C4CC[C@H]3[C@@H]1CC[C@@]2(O)C(F)(F)C(F)(F)F [Example 49, (11β,17β)-17-hydroxy-17-(pentafluoroethyl)-11-(4-{[4-(pyridin-4-ylmethyl)piperazin-1-yl]carbonyl}phenyl)estra-4,9-dien-3-one]	7.6 nM
CN(CCc1ccccn1)C(=O)c1ccc([C@H]2C[C@@]3(C)[C@@H](CC[C@@]3(O)C(F)(F)C(F)(F)F)[C@@H]3CCC4=CC(=O)CCC4=C32)cc1 [Example 50, 4-[(11β,17β)-17-hydroxy-3-oxo-17-(pentafluoroethyl)estra-4,9-dien-11-yl]-N-methyl-N-[2-(pyridin-2-yl)ethyl]benzamide]	15.7 nM
CN(Cc1ccccc1)C(=O)c1ccc([C@H]2C[C@@]3(C)[C@@H](CC[C@@]3(O)C(F)(F)C(F)(F)F)[C@@H]3CCC4=CC(=O)CCC4=C32)cc1 [Example 51, N-benzyl-4-[(11β,17β)-17-hydroxy-3-oxo-17-(pentafluoroethyl)estra-4,9-dien-11-yl]-N-methylbenzamide]	9 nM
CC(=O)Nc1ccc(NC(=O)c2ccc([C@H]3C[C@@]4(C)[C@@H](CC[C@@]4(O)C(F)(F)C(F)(F)F)[C@@H]4CCC5=CC(=O)CCC5=C43)cc2)cc1 [Example 52, N-(4-acetamidophenyl)-4-[(11β,17β)-17-hydroxy-3-oxo-17-(pentafluoroethyl)estra-4,9-dien-11-yl]benzamide]	0.71 nM
COc1cccc(CNC(=O)c2ccc([C@H]3C[C@@]4(C)[C@@H](CC[C@@]4(O)C(F)(F)C(F)(F)F)[C@@H]4CCC5=CC(=O)CCC5=C43)cc2)c1 [Example 53, 4-[(11β,17β)-17-hydroxy-3-oxo-17-(pentafluoroethyl)estra-4,9-dien-11-yl]-N-(3-methoxybenzyl)benzamide]	29 nM

From patent US9109004B2, “Progesterone receptor antagonists” (Bayer Intellectual Property GmbH, priority 2010, dated 2015)
